Results from PubChem BioAssay (NCI).
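The compound was tested at five concentrations on cells cultured in 96-well plates, with a 48-hour exposure period. At the GI50, growth is halved. TGI denotes the concentration required for complete inhibition of growth.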

Legend:
Test in all cases: DTP human tumour cell line panel, 48 h
[1] = test system: NCI-H522 lung
[2] = test system: SNB-19 CNS
[3] = test system: UACC-62 melanoma
[4] = test system: KM12 colon
[5] = test system: SN12C renal
[6] = test system: CAKI-1 renal
[7] = test system: SF-295 CNS
[8] = test system: SK-MEL-28 melanoma
[9] = test system: UACC-257 melanoma
[10] = test system: SNB-75 CNS

C(=N\Nc1nnn(Cc2ccccc2)n1)/c1ccccc1 gave a GI50 [1] of 0.56 µM, a GI50 [2] of 9.95 µM and a TGI [2] of 64.8 µM. For the same compound, the GI50 [3] was 2.2 µM, the TGI [3] was greater than 100 µM and the GI50 [4] was 0.905 µM. The TGI [4] was greater than 100 µM, the GI50 [5] was 9.46 µM and the TGI [5] was greater than 100 µM. For the same compound, the GI50 [6] was 2.57 µM, the TGI [6] was greater than 100 µM and the GI50 [7] was 3.44 µM. It also gave a TGI [7] of 56.3 µM, a GI50 [8] of 8.47 µM and a TGI [8] greater than 100 µM. For the same compound, the TGI [9] was greater than 100 µM, the GI50 [10] was 3.67 µM and the TGI [10] was 36.8 µM.
In the case of Cn1cc(C2=C(c3cn(C4CCN(Cc5ccccn5)CC4)c4ccccc34)C(=O)NC2=O)c2ccccc21, the GI50 [1] is reported as 4.19 µM, the TGI [1] is reported as greater than 100 µM and the GI50 [2] is reported as greater than 70.2 µM. For the same compound, the TGI [2] was greater than 100 µM, the GI50 [3] was 5.12 µM and the TGI [3] was greater than 100 µM. It also gave a GI50 [4] of 3.85 µM, a TGI [4] greater than 100 µM and a GI50 [5] greater than 100 µM. For the same compound, the TGI [5] was greater than 100 µM, the GI50 [6] was greater than 21.6 µM and the TGI [6] was greater than 100 µM. It also gave a GI50 [7] of 3.49 µM, a TGI [7] greater than 26.1 µM and a GI50 [8] of 6.07 µM. It also gave a TGI [8] greater than 100 µM, a GI50 [9] of 4.73 µM and a TGI [9] greater than 100 µM. For the same compound, the GI50 [10] was 0.358 µM and the TGI [10] was 9.74 µM.
For CN1/C(=C\C=C\C2=[N+](C)c3ccccc3C2(C)C)C(C)(C)c2ccccc21, the GI50 [1] was 0.0782 µM, the TGI [1] was 10.2 µM and the GI50 [2] was 0.067 µM. For the same compound, the TGI [2] was 12 µM, the GI50 [3] was 0.124 µM and the TGI [3] was 1.45 µM. The GI50 [4] was 0.0363 µM, the TGI [4] was 0.932 µM and the GI50 [5] was 0.155 µM. For the same compound, the TGI [5] was 1.11 µM, the GI50 [6] was 0.55 µM and the TGI [6] was 5.04 µM. It also gave a GI50 [7] of 0.0336 µM, a TGI [7] of 1.27 µM and a GI50 [8] of 0.412 µM. For the same compound, the TGI [8] was 2.84 µM, the GI50 [9] was 0.0386 µM and the TGI [9] was 0.452 µM. The GI50 [10] was 0.271 µM and the TGI [10] was 1.88 µM.
O=C1CCCCN1CCCCC#Cc1cccc(C#Cc2cccnc2)c1 showed a GI50 [1] of 19 µM, a TGI [1] of 63.7 µM and a GI50 [2] of 13 µM. It also gave a TGI [2] of 27.2 µM, a GI50 [3] of 4.82 µM and a TGI [3] of 16.9 µM. For the same compound, the GI50 [4] was 20.4 µM, the TGI [4] was greater than 100 µM and the GI50 [5] was 14.1 µM. The TGI [5] was 28.5 µM, the GI50 [6] was 35.5 µM and the TGI [6] was greater than 100 µM. For the same compound, the GI50 [7] was 18.1 µM, the TGI [7] was 84 µM and the GI50 [8] was 38.7 µM. The TGI [8] was greater than 100 µM, the GI50 [9] was 17.7 µM and the TGI [9] was 49.6 µM. For the same compound, the GI50 [10] was 4.05 µM and the TGI [10] was 20.4 µM.
CCN(C(=O)/C=C/c1ccco1)c1ccccc1 showed a TGI [1] greater than 100 µM, a TGI [2] greater than 100 µM and a TGI [3] greater than 100 µM. It also gave a TGI [4] greater than 100 µM, a TGI [5] greater than 100 µM and a TGI [6] greater than 100 µM. It also gave a TGI [7] greater than 100 µM, a TGI [8] greater than 100 µM and a TGI [9] greater than 100 µM. The TGI [10] was greater than 100 µM.
In the case of O=c1oc2ccc(I)cc2c(=O)n1-c1ccc(Cl)cc1F, the GI50 [1] is reported as 0.8 µM, the TGI [1] is reported as 9.72 µM and the GI50 [2] is reported as 0.64 µM. The TGI [2] was 58.7 µM, the GI50 [3] was 0.419 µM and the TGI [3] was 2.28 µM. The GI50 [4] was 2.22 µM, the TGI [4] was 5.39 µM and the GI50 [5] was 0.8 µM. It also gave a TGI [5] of 8.77 µM, a GI50 [6] of 1.09 µM and a TGI [6] of 5.61 µM. For the same compound, the GI50 [7] was 1.8 µM, the TGI [7] was 3.69 µM and the GI50 [8] was 0.416 µM. It also gave a TGI [8] of 2.98 µM, a GI50 [9] of 0.526 µM and a TGI [9] of 6.45 µM. It also gave a GI50 [10] of 0.5 µM and a TGI [10] of 2.97 µM.
Work on CN(C)C(=S)/N=c1\ssc(=S)n1Cc1ccncc1 yielded a TGI [1] of 2.99 µM, a TGI [2] greater than 100 µM and a TGI [3] of 25.5 µM. It also gave a TGI [4] of 16.8 µM, a TGI [5] greater than 100 µM and a TGI [6] of 75.6 µM. It also gave a TGI [7] of 83.8 µM, a TGI [8] greater than 100 µM and a TGI [9] of 83.5 µM. The TGI [10] was 58.5 µM.
For CC(=O)/C(=C/c1ccccc1F)C(=O)c1ccccc1, the TGI [1] was greater than 100 µM, the TGI [2] was greater than 100 µM and the TGI [3] was greater than 100 µM. The TGI [4] was greater than 100 µM, the TGI [5] was greater than 100 µM and the TGI [6] was greater than 100 µM. It also gave a TGI [7] greater than 100 µM, a TGI [8] greater than 100 µM and a TGI [9] of 91.3 µM. For the same compound, the TGI [10] was greater than 100 µM.
CC(C)CCC1(CCN)C(=O)NC(=O)NC1=O gave a TGI [1] greater than 100 µM, a TGI [2] greater than 100 µM and a TGI [3] greater than 100 µM. It also gave a TGI [4] greater than 100 µM, a TGI [5] greater than 100 µM and a TGI [6] greater than 100 µM. For the same compound, the TGI [7] was greater than 100 µM, the TGI [8] was greater than 100 µM and the TGI [9] was greater than 100 µM. It also gave a TGI [10] greater than 100 µM.
In the case of Cc1ccccc1C(=O)N1CCN(C(=O)c2ccccc2C)CC1, the TGI [1] is reported as greater than 100 µM, the TGI [2] is reported as greater than 100 µM and the TGI [3] is reported as greater than 100 µM. For the same compound, the TGI [4] was greater than 100 µM, the TGI [5] was greater than 100 µM and the TGI [6] was greater than 100 µM. For the same compound, the TGI [7] was greater than 100 µM, the TGI [8] was greater than 100 µM and the TGI [9] was greater than 100 µM. The TGI [10] was greater than 100 µM.
Work on C=C1C[C@@H]2CC[C@@]34C[C@H]5O[C@H]6[C@@H](O3)[C@H]3O[C@H](CC[C@@H]3O[C@H]6[C@@H]5O4)CC(=O)C[C@@H]3[C@@H](OC)[C@@H](C[C@H](O)CN)O[C@H]3C[C@H]3O[C@@H](CC[C@@H]1O2)C[C@@H](C)C3=C yielded a GI50 [1] of less than 0.01 µM, a TGI [1] of 11.8 µM and a GI50 [2] of less than 0.01 µM. The TGI [2] was greater than 100 µM, the GI50 [3] was less than 0.01 µM and the TGI [3] was greater than 100 µM. For the same compound, the GI50 [4] was less than 0.01 µM, the TGI [4] was greater than 100 µM and the GI50 [5] was less than 0.01 µM. For the same compound, the TGI [5] was greater than 100 µM, the GI50 [6] was 0.0358 µM and the TGI [6] was greater than 100 µM. The GI50 [7] was less than 0.01 µM, the TGI [7] was 0.839 µM and the TGI [8] was greater than 100 µM. The GI50 [9] was greater than 65.8 µM, the TGI [9] was greater than 100 µM and the GI50 [10] was less than 0.01 µM. The TGI [10] was greater than 100 µM.
For CCCCN(CC)CC(C(C)=O)c1c(O)c2ccccc2oc1=O (configuration not stated), the TGI [1] was greater than 100 µM, the TGI [2] was greater than 100 µM and the TGI [3] was greater than 100 µM. It also gave a TGI [4] greater than 100 µM, a TGI [5] greater than 100 µM and a TGI [6] greater than 100 µM. It also gave a TGI [7] greater than 100 µM, a TGI [8] greater than 100 µM and a TGI [9] greater than 100 µM. For the same compound, the TGI [10] was greater than 100 µM.
CCNC(=O)c1noc(-c2cc(C(C)C)c(O)cc2O)c1-c1ccc(CN2CCOCC2)cc1 was tested, and the GI50 [1] was 0.0333 µM, the TGI [1] was 13.6 µM and the GI50 [2] was 0.0762 µM. The TGI [2] was greater than 100 µM, the GI50 [3] was 0.0333 µM and the TGI [3] was 4.92 µM. The GI50 [4] was 0.0203 µM, the TGI [4] was 0.0741 µM and the GI50 [5] was 0.0707 µM. For the same compound, the TGI [5] was greater than 100 µM, the GI50 [6] was 0.059 µM and the TGI [6] was greater than 100 µM. The GI50 [7] was 0.0287 µM, the TGI [7] was 11.2 µM and the GI50 [8] was 0.055 µM. For the same compound, the TGI [8] was 22.7 µM, the GI50 [9] was 0.0259 µM and the TGI [9] was 0.159 µM. For the same compound, the GI50 [10] was 4.51 µM and the TGI [10] was 55.8 µM.
COC(=O)C1(C)Cc2cc(OC(C)=O)c(OC(C)=O)cc2N1 (configuration not stated) was tested, and the GI50 [1] was 0.633 µM, the TGI [1] was 1.8 µM and the GI50 [2] was greater than 61.9 µM. For the same compound, the TGI [2] was greater than 100 µM, the GI50 [3] was 4.09 µM and the TGI [3] was 17.5 µM. For the same compound, the GI50 [4] was 20.2 µM, the TGI [4] was 51.6 µM and the GI50 [5] was 17 µM. The TGI [5] was greater than 81.8 µM, the GI50 [6] was 2.98 µM and the TGI [6] was 11.3 µM. The GI50 [7] was 67.5 µM, the TGI [7] was greater than 100 µM and the GI50 [8] was 13.8 µM. For the same compound, the TGI [8] was 32.3 µM, the GI50 [9] was 1.68 µM and the TGI [9] was 11.4 µM. For the same compound, the GI50 [10] was 26.3 µM and the TGI [10] was greater than 96.7 µM.
Work on CN(C)CCNC(=O)Cn1ccc(=O)c2c([N+](=O)[O-])cccc21 yielded a TGI [1] greater than 100 µM, a TGI [2] greater than 100 µM and a TGI [3] greater than 100 µM. It also gave a TGI [4] greater than 100 µM, a TGI [5] greater than 100 µM and a TGI [6] greater than 100 µM. The TGI [7] was greater than 100 µM, the TGI [8] was greater than 100 µM and the TGI [9] was greater than 100 µM. For the same compound, the TGI [10] was greater than 100 µM.
